The IC50 is the concentration needed to halve the response being measured. Read a high IC50 as weaker potency.

SMILES strings stand for the structures.

These results are taken from US20250282799A1, “SUBSTITUTED PYRIDO[4,3-d]PYRIMIDINES AS KRAS MODULATORS” (Alterome Therapeutics, Inc., priority 2023, published 2025).

The test system of the assay is KRAS G12V dependent lung adenocarcinoma cell line, NCI-H441. Description: Cellular pERK (Thr202/Tyr204) FRET/HTRF assay. It is filed as cell-based. As to conditions: Homo sapiens, NCI-H441, cellular pERK (Thr202/Tyr204) HTRF, NCI-H441 cells. In a few lines:
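IC50 reflects inhibition of ERK1/2 Thr202/Tyr204 phosphorylation, quantified by HTRF after a 1 hr treatment of KRAS G12V-driven NCI-H441 cells. DMSO served as negative control.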
In turn, `[2H]C([2H])(Oc1nc(N2CC[C@H](C#N)C[C@@H]3[C@@H](F)[C@@H]32)c2cnc(-c3cc(N)cc4ccc(F)c(C#C)c34)c(F)c2n1)[C@@]12CCCN1C[C@H](F)C2` [Example 307, (1R,5R,7S,8R)-2-(7-(3-amino-8-ethynyl-7-fluoronaphthalen-1-yl)-8-fluoro-2-(((2R,7aS)-2-fluorotetrahydro-1H-pyrrolizin-7a(5H)-yl)methoxy-d2)pyrido[4,3-d]pyrimidin-4-yl)-8-fluoro-2-azabicyclo[5.1.0]octane-5-carbonitrile] registered an IC50 of 50 to 500 nM. Then `[2H]C([2H])(Oc1nc(N2CC[C@@H](C#N)C[C@H]3[C@@H](F)[C@H]32)c2cnc(-c3cc(N)cc4ccc(F)c(C#C)c34)c(F)c2n1)[C@@]12CCCN1C[C@H](F)C2` [Example 308, (1S,5S,7R,8R)-2-(7-(3-amino-8-ethynyl-7-fluoronaphthalen-1-yl)-8-fluoro-2-(((2R,7aS)-2-fluorotetrahydro-1H-pyrrolizin-7a(5H)-yl)methoxy-d2)pyrido[4,3-d]pyrimidin-4-yl)-8-fluoro-2-azabicyclo[5.1.0]octane-5-carbonitrile], with 50 to 500 nM; and `[2H]C([2H])(Oc1nc(N2CC[C@H](C#N)C[C@H]3[C@@H](F)[C@H]32)c2cnc(-c3cc(N)cc4ccc(F)c(C#C)c34)c(F)c2n1)[C@@]12CCCN1C[C@H](F)C2` [Example 310, (1S,5R,7R,8R)-2-(7-(3-amino-8-ethynyl-7-fluoronaphthalen-1-yl)-8-fluoro-2-(((2R,7aS)-2-fluorotetrahydro-1H-pyrrolizin-7a(5H)-yl)methoxy-d2)pyrido[4,3-d]pyrimidin-4-yl)-8-fluoro-2-azabicyclo[5.1.0]octane-5-carbonitrile], with 50 to 500 nM; and `[2H]C([2H])(Oc1nc(N2CC[C@@H](C#N)C[C@@H]3[C@H](F)[C@@H]32)c2cnc(-c3cc(N)cc4ccc(F)c(C#C)c34)c(F)c2n1)[C@@]12CCCN1C[C@H](F)C2` [Example 311, (1R,5S,7S,8S)-2-(7-(3-amino-8-ethynyl-7-fluoronaphthalen-1-yl)-8-fluoro-2-(((2R,7aS)-2-fluorotetrahydro-1H-pyrrolizin-7a(5H)-yl)methoxy-d2)pyrido[4,3-d]pyrimidin-4-yl)-8-fluoro-2-azabicyclo[5.1.0]octane-5-carbonitrile], with 50 to 500 nM. Then `[2H]C([2H])(Oc1nc(N2CCOC[C@H]3[C@H](F)[C@H]32)c2cnc(-c3cccc4ccc(Cl)c(C#C)c34)c(F)c2n1)[C@@]12CCCN1C[C@H](F)C2` [Example 318, (1S,7S,8S)-2-(7-(7-chloro-8-ethynylnaphthalen-1-yl)-8-fluoro-2-(((2R,7aS)-2-fluorotetrahydro-1H-pyrrolizin-7a(5H)-yl)methoxy-d2)pyrido[4,3-d]pyrimidin-4-yl)-8-fluoro-5-oxa-2-azabicyclo[5.1.0]octane], with less than 50 nM. Next, `[2H]C([2H])(Oc1nc(N2CCOC[C@H]3[C@H](F)[C@H]32)c2cnc(-c3cccc4cccc(C#C)c34)c(F)c2n1)[C@@]12CCCN1C[C@H](F)C2` [Example 319, (1S,7S,8S)-2-(7-(8-ethynylnaphthalen-1-yl)-8-fluoro-2-(((2R,7aS)-2-fluorotetrahydro-1H-pyrrolizin-7a(5H)-yl)methoxy-d2)pyrido[4,3-d]pyrimidin-4-yl)-8-fluoro-5-oxa-2-azabicyclo[5.1.0]octane]: less than 50 nM; `[2H]C([2H])(Oc1nc(N2CCOC[C@H]3[C@H](Cl)[C@H]32)c2cnc(-c3cccc4ccc(Cl)c(C#C)c34)c(F)c2n1)[C@@]12CCCN1C[C@H](F)C2` [Example 320, (1S,7S,8S)-8-chloro-2-(7-(7-chloro-8-ethynylnaphthalen-1-yl)-8-fluoro-2-(((2R,7aS)-2-fluorotetrahydro-1H-pyrrolizin-7a(5H)-yl)methoxy-d2)pyrido[4,3-d]pyrimidin-4-yl)-5-oxa-2-azabicyclo[5.1.0]octane]: less than 50 nM.

In turn, `C#Cc1c(Cl)ccc2cc(N)cc(-c3ncc4c(N5CCOC[C@H]6[C@H](Cl)[C@H]65)nc(OC[C@@H]5CCCN5C)nc4c3F)c12` [Example 321, 6-chloro-4-(4-((1S,7S,8S)-8-chloro-5-oxa-2-azabicyclo[5.1.0]octan-2-yl)-8-fluoro-2-(((S)-1-methylpyrrolidin-2-yl)methoxy)pyrido[4,3-d]pyrimidin-7-yl)-5-ethynylnaphthalen-2-amine] had an IC50 of less than 50 nM. In turn, `C#Cc1cccc2cc(N)cc(-c3ncc4c(N5CCOC[C@H]6[C@H](Cl)[C@H]65)nc(OC[C@@H]5CCCN5C)nc4c3F)c12` [Example 322, 4-(4-((1S,7S,8S)-8-chloro-5-oxa-2-azabicyclo[5.1.0]octan-2-yl)-8-fluoro-2-(((S)-1-methylpyrrolidin-2-yl)methoxy)pyrido[4,3-d]pyrimidin-7-yl)-5-ethynylnaphthalen-2-amine] yielded an IC50 of less than 50 nM.

In turn, `[2H]C([2H])(Oc1nc(N2CCOC[C@H]3[C@H](F)[C@H]32)c2c(OC(C)C)nc(-c3cc(N)cc4ccc(F)c(C#C)c34)c(F)c2n1)[C@@]12CCCN1C[C@H](F)C2` [Example 323, 5-ethynyl-6-fluoro-4-(8-fluoro-4-((1S,7S,8S)-8-fluoro-5-oxa-2-azabicyclo[5.1.0]octan-2-yl)-2-(((2R,7aS)-2-fluorotetrahydro-1H-pyrrolizin-7a(5H)-yl)methoxy-d2)-5-isopropoxypyrido[4,3-d]pyrimidin-7-yl)naphthalen-2-amine] displayed a half-inhibitory concentration (IC50) of less than 50 nM. `[2H]C([2H])(Oc1nc(N2CCOC[C@H]3[C@H](F)[C@H]32)c2cnc(-c3cc(O)cc4ccc(C)c(C#C)c34)c(F)c2n1)[C@@]12CCCN1C[C@H](F)C2` [Example 324, 5-ethynyl-4-(8-fluoro-4-((1S,7S,8S)-8-fluoro-5-oxa-2-azabicyclo[5.1.0]octan-2-yl)-2-(((2R,7aS)-2-fluorotetrahydro-1H-pyrrolizin-7a(5H)-yl)methoxy-d2)pyrido[4,3-d]pyrimidin-7-yl)-6-methylnaphthalen-2-ol] showed an IC50 of less than 50 nM. Next, `[2H]C([2H])(Oc1nc(N2CCOC[C@H]3[C@H](F)[C@H]32)c2cnc(-c3cccc4ccc(C)c(C#C)c34)c(F)c2n1)[C@@]12CCCN1C[C@H](F)C2` [Example 325, (1S,7S,8S)-2-(7-(8-ethynyl-7-methylnaphthalen-1-yl)-8-fluoro-2-(((2R,7aS)-2-fluorotetrahydro-1H-pyrrolizin-7a(5H)-yl)methoxy-d2)pyrido[4,3-d]pyrimidin-4-yl)-8-fluoro-5-oxa-2-azabicyclo[5.1.0]octane]: less than 50 nM; `C#Cc1c(Cl)ccc2cc(N)cc(-c3ncc4c(N5CCOC[C@@H]6[C@@H](Cl)[C@@H]65)nc(OC[C@@H]5CCCN5C)nc4c3F)c12` [Example 326, 6-chloro-4-(4-((1R,7R,8R)-8-chloro-5-oxa-2-azabicyclo[5.1.0]octan-2-yl)-8-fluoro-2-(((S)-1-methylpyrrolidin-2-yl)methoxy)pyrido[4,3-d]pyrimidin-7-yl)-5-ethynylnaphthalen-2-amine]: 50 to 500 nM; `C#Cc1cccc2cc(N)cc(-c3ncc4c(N5CCOC[C@@H]6[C@@H](Cl)[C@@H]65)nc(OC[C@@H]5CCCN5C)nc4c3F)c12` [Example 327, 4-(4-((1R,7R,8R)-8-chloro-5-oxa-2-azabicyclo[5.1.0]octan-2-yl)-8-fluoro-2-(((S)-1-methylpyrrolidin-2-yl)methoxy)pyrido[4,3-d]pyrimidin-7-yl)-5-ethynylnaphthalen-2-amine]: 50 to 500 nM.
